System: MEC-1 cells
Assay: Cytotoxicity/ADCC cell killing of MEC-1 cells with PBMCs (FACS, propidium iodide)
Format: cell-based, human
Conditions: for normalized specific killing: combination set to 1, Bendamustine 100 μg/ml, MOR00208 6.6 pM; for % dead cells: MOR00208 6.6 pm, BEN 100 μg/ml (48 h pre-incubation), E:T 30:1, 4 h, control RefMab33
Source text: MEC-1 cells: chronic B-cell leukemia cell line DSMZ #ACC497; Cell Medium: Iscove's Modified Dulbecco's Medium (IMDM) with GlutaMAX™, Invitrogen, Cat No.: 31980-048, 20% FCS; PBMCs: RPMI1640, with stabile Glutamine, PAN Biotech GmbH, Cat No.: P04-13500 supplemented with 10% FCS; Biocoll: Biochrome AG CAT No.: L6115 LOT No.: 1050T; Bendamustine: Mundipharma LOT No.: 88018; FCS: PAN CAT No.: 3302-P282403 LOT No.: P282403; and RefmAb33 (anti-RSV) with same Fc region as MOR00208.
The cytotoxicity of MOR00208 and bendamustine alone and in combination was tested in MEC-1 cells. BEN is an alkylating agent, therefore, functions via direct cytoxicity in MEC-1 cells. MOR00208 targets CD19 and additionally functions via ADCC in killing MEC-1 cells. For the following groups MEC-1 cell killing was measured: BEN at 100 μg/ml; MOR00208 at 6.6 pm and the combination of MOR00208 at 6.6 pm and BEN at 100 μg/ml. […] The following were used as controls: RefmAb33, or PBMCs alone. In both the BEN group and MOR00208+BEN combination group, MEC-1 cells were pre-incubated with BEN 48 hours prior to the ADCC assay measurements. The MEC-1 cells were stained using 1 mg/ml Calcein AM then counted and adjusted to 2×10^5/ml. The PBMCs were counted and adjusted to 6×10^6/ml. The cell killing assays were done as follows: using 96 well plates, a 100 μl cell suspension of MEC-1 cells was added per well, then 100 μl cell suspension of PBMCs was added to each well resulting in an E:T ratio of 30:1. The antibodies were diluted to 1 μg/ml in medium. Cells were centrifuged and re-suspended. To the target:effector cell-pellet, 100 μl antibody solution or according control solution was added. The mixture was incubated for 4 h in CO2-incubator at 37° C. The cell killing measurements were taken as follows: the incubated cell solution (˜100 μl) was transferred into FACS tubes and 200 μl FACS buffer (DPBS+3% FCS) and 0.5 μl PI stock solution was added to each tube. FACS-Calibur was used. Dead MEC-1 cells were stained with propidium iodide.
The values represent % dead cells. Each experiment represents PBMCs from different donors. The controls used for each experiment was RefMab33.
The values shown in Table 2 are calculated as follows: 1) from the raw data (% dead cells) shown in Table 1, the background (controls) were subtracted, resulting in the specific killing for each treatment group; then 2) the specific killing values were normalized by setting the combination of MOR00208+BEN to 1. The averages of Table 2 are depicted in FIG. 5.
[…] (CI) calculations were completed in order to determine synergy of the combination of the exemplified anti-CD19 antibody and bendamustine as compared to MOR00208 and BEN alone. Such calculations are described in Ting-Chao Chou, Theoretical Basis, Experimental Design, and Computerized Simulation of Synergism and Antagonism in Drug Combination Studies, Pharmacol Rev 58:621-681 (2006), which is incorporated by reference in its entirety and Chou T C, Talalay P, Quantitative analysis of dose-effect relationships: the combined effects of multiple drugs or enzyme inhibitors. Adv Enzyme Regul 22:27-55 (1984), which is incorporated by reference in its entirety. The methods of Chou-Talalay are carried out using the CI-isobol method.
The median-effect equation models of the effect of an inhibitor (such as a drug) as Fa/Fu=(D/D50)^m, where D is the dose, Fa and Fu is the fraction of the system affected and unaffected by the dose D (Fa+Fu=1); D50 is the dose producing the median effect (e.g. IC50, ED50, LD50). The constant m determines the shape of the dose-effect curve. We used Excel Fit software to carry out a linear regression calculation to estimate the parameters m and D50.
The effects of the combination on MEC-1 cells is measured % cell death as described above.

MOR00208: anti-CD19 antibody; variable domains shown in FIG. 3, heavy and light chain Fc regions in FIG. 4
normalized specific killing (Average of experiments 1-3): 0.6
% dead cells (Experiment 1 (PBMC donor)): 73.6%
normalized specific killing (Experiment 1, background subtracted): 0.70
% dead cells (Experiment 2 (PBMC donor)): 41.5%
normalized specific killing (Experiment 2, background subtracted): 0.50
% dead cells (Experiment 3 (PBMC donor)): 57.2%
normalized specific killing (Experiment 3, background subtracted): 0.50
EC50 (concentration chosen as near or at the EC50, read-out: EC50 (MEC-1 cell killing)): ~6.6 pM
Bonferroni's Multiple Comparison Test Mean Diff. (normalized specific killing, monotherapy vs. BEN + MOR00208 combination): −0.4321

B1: RefmAb33: antibody specific for RSV, used as isotype control, shares the same Fc region as MOR00208 (SEQ ID NO: 8, 9) (antibody)
heavy: QVTLRESGPALVKPTQTLTLTCTFSGFSLSTAGMSVGWIRQPPGKALEWLADIWWDDKKHYNPSLKDRLTISKDTSKNQVVLKVTNMDPADTATYYCARDMIFNFYFDVWGQGTTVTVSSASTKGPSVFPLAPSSKSTSGGTAALGCLVKDYFPEPVTVSWNSGALTSGVHTFPAVLQSSGLYSLSSVVTVPSSSLGTQTYICNVNHKPSNTKVDKKVEPKSCDKTHTCPPCPAPELLGGPDVFLFPPKPKDTLMISRTPEVTCVVVDVSHEDPEVQFNWYVDGVEVHNAKTKPREEQFNSTFRVVSVLTVVHQDWLNGKEYKCKVSNKALPAPEEKTISKTKGQPREPQVYTLPPSREEMTKNQVSLTCLVKGFYPSDIAVEWESNGQPENNYKTTPPMLDSDGSFFLYSKLTVDKSRWQQGNVFSCSVMHEALHNHYTQKSLSLSPGK
light: DIQMTQSPSTLSASVGDRVTITCSASSRVGYMHWYQQKPGKAPKLLIYDTSKLASGVPSRFSGSGSGTEFTLTISSLQPDDFATYYCFQGSGYPFTFGGGTKVEIKRTVAAPSVFIFPPSDEQLKSGTASVVCLLNNFYPREAKVQWKVDNALQSGNSQESVTEQDSKDSTYSLSSTLTLSKADYEKHKVYACEVTHQGLSSPVTKSFNRGEC
modifications: Heavy chain RefMab33; Light chain RefMab33
% dead cells (Experiment 1 (PBMC donor)): 25.2%
% dead cells (Experiment 2 (PBMC donor)): 18%
% dead cells (Experiment 3 (PBMC donor)): 30.9%
